Data reported in US5212170A, “Psychotropic piperidinylmethyl benzodioxans” (American Home Products Corporation, priority 1992, dated 1993).

How the values were obtained:
[1] = target: T1, serotonin 5-HT1A receptor (Rattus norvegicus, UniProt P19327); assay: 5-HT1A Binding (displacement of [3H] 8-OHDPAT)
T1 construct: following the procedure of Hall et al., J. Neurochem; 44, 1685 (1985); from tissue
T1 sequence (P19327 1-422): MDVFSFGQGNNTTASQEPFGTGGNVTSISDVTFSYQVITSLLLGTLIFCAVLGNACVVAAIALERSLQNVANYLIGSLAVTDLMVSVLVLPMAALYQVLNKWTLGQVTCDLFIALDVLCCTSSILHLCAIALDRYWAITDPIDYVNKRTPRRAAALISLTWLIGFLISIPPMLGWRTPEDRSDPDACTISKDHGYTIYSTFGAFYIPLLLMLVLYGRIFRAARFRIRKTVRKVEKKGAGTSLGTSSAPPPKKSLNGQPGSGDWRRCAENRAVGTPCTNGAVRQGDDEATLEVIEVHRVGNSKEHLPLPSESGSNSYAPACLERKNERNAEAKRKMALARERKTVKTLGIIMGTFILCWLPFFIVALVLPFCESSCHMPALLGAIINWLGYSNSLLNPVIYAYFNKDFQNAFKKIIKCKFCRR
Excerpt: High affinity for the serotonin 5-HT1A receptor was established by testing the claimed compound's ability to displace [^3 H] 8-OHDPAT (dipropylaminotetralin) from the 5-HT1A serotonin receptor following the procedure of Hall et al., J. Neurochem. 44, 1685 (1985). […] The anxiolytic activity of buspirone is believed to be, at least partially, due to its 5-HT1A receptor affinity (Vander Maclen et al., Eur. J. Pharmacol. 1986, 129 (1-2) 133-130).

dopamine D-2 receptor = target: T2, dopamine D-2 receptor (Rattus norvegicus, UniProt P61169); assay: D-2 Binding (3H-spiroperidol, homogenized limbic brain tissue)
T2 construct: from tissue; host or cells: homogenized limbic brain tissue
Procedure: High affinity for the dopamine D-2 receptor was established by the standard experimental test procedure of Fields, et al., Brain Res., 136, 578 (1977) and Yamamura et al., eds., Neurotransmitter Receptor Binding, Raven Press, N.Y. (1978) wherein homogenized limbic brain tissue is incubated with ^3 H-spiroperidol and various concentrations of test compound, filtered and washed and shaken with Hydrofluor scintillation cocktail (National Diagnostics) and counted in a Packard 460 CD scintillation counter.

[2] = test system: 5-HT1A serotonin receptor subtype; conditions: standard for anxiolytic activity; cited from earlier work
5-HT1A receptor site = conditions: cited from earlier work

T2 sequence (P61169 whole entry): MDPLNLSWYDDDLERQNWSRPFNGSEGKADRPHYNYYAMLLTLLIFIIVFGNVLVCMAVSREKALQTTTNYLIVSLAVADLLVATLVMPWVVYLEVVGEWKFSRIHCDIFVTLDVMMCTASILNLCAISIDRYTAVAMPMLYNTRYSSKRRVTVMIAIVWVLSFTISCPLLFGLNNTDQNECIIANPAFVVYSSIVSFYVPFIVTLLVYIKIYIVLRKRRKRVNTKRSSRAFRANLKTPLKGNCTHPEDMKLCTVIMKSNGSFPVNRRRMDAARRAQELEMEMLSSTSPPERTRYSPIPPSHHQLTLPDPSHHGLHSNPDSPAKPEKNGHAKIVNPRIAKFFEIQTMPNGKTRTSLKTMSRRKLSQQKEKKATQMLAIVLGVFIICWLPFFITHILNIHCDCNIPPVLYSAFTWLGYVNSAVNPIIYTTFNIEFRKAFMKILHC

| Structure (SMILES) | inhibition at 0.1 µM [1] [%] | inhibition at 1 µM (dopamine D-2 receptor) [%] | further results |
| --- | --- | --- | --- |
| O=C1CC2(CCCC2)CC(=O)N1CCCCN1CCN(c2ncccn2)CC1 [buspirone] |  |  | affinity for the 5-HT1A serotonin receptor subtype [2]: potent affinity |
| O=C(NCC1CCN(CC2COc3ccccc3O2)CC1)C12CC3CC(CC(C3)C1)C2 (stereo not drawn) [Example 5, N-[[1-[(2,3-Dihydro-1,4-benzodioxin-2-yl)methyl]-4-piperidinyl]methyl]tricyclo[3.3.1.1^3,7]decane-1-carboxamide] | 92 | 52 |  |
| O=C1CC2(CCCC2)CC(=O)N1CCCCNCC1COc2ccccc2O1 (single isomer, unassigned; (-)) [(-)-MDL 72832] |  |  | binding at the 5-HT1A receptor site relative to the dextrorotary isomer (5-HT1A receptor site; (-)-isomer vs dextrorotary isomer): 32 times |
| O=C1CC2(CCCC2)CC(=O)N1CCCCNCC1COc2ccccc2O1 (stereo not drawn) [MDL 72832, 8-[4-(1,4-benzodioxan-2-ylmethylamino)butyl]-8-azaspiro[4.5]decane-7,9-dione] |  |  | ligand selectivity for 5-HT1A receptors (5-HT1A receptor site; Fozard et al. 1987): selective and stereospecific |

The next lines start with results.

| inhibition at 0.1 µM [1] [%] | inhibition at 1 µM (dopamine D-2 receptor) [%] | Structure (SMILES) | further results |
| --- | --- | --- | --- |
| 4 |  | O=C1C2C3C=CC(C4C=CC43)C2C(=O)N1C1CCN(CC2COc3ccccc3O2)CC1 (stereo not drawn) [Example 2, 3a, 4,4a, 6a, 7,7a-Hexahydro-2-[1-[(2,3-Dihydro-1,4-benzodioxin-2-yl)methyl]-4-piperidinyl]-4,7-etheno-1H-cyclobut[f]isoindole-1,3(2H)-dione] |  |
| 59 | 29 | O=C(NC1CCN(CC2COc3ccccc3O2)CC1)C12CC3CC(CC(C3)C1)C2 (stereo not drawn) [Example 1, N-[1-[(2,3-Dihydro-1,4-benzodioxin-2-yl)methyl]-4-piperidinyl]tricyclo[3.3.1.1^3,7]decane-1-carboxamide] | IC50 [1]: 107 nM |
| 45 |  | O=C1c2ccccc2S(=O)(=O)N1C1CCN(CC2COc3ccccc3O2)CC1 (stereo not drawn) [Example 3, 2-[1-[(2,3-Dihydro-1,4-benzodioxin-2-yl)methyl]-4-piperidinyl]-1,2-benzoisothiazol-3(2H)-one 1,1-dioxide] |  |
| 96 | 97 | O=C1C2CC(C(=O)N1CC1CCN(CC3COc4ccccc4O3)CC1)C1C2C2C3CC4C2C4C31 (stereo not drawn) [Example 4, 3-[[1-[(2,3-Dihydro-1,4-benzodioxin-2-yl)methyl]-4-piperidinyl]methyl]decahydro-2H-1,5-methano-6,7,9-methenopentaleno[1,2-d]azepine-2,4(3H)-dione] |  |
